Measured values: the CATMoS acute toxicity set (Mansouri et al. 2021)
Where “and” joins values, the source holds several entries; their conditions need not be identical. Equal values may be shown once.

Assay: rat acute oral toxicity
Conditions: in vivo

| Compound | LD50 |
| --- | --- |
| CC(O)CCO (stereo unspecified) | 18600 mg/kg |
| C[C@H]1OC(=O)[C@@H](C)OC1=O | 3540 mg/kg |
| ClC(Cl)c1ccccc1 | 3250 mg/kg |
| CCCCCc1cc(O)c2c(c1)OC(C)(C)[C@@H]1CCC(C)=C[C@@H]21 | 666 mg/kg |
| O=C=Nc1ccc(Cl)c(Cl)c1 | 91 mg/kg |
| Cc1ccccc1C(OCCN(C)C)c1ccccc1 (stereo unspecified) | 255 mg/kg |
| CCCCOC(=O)c1ccccc1 | 735 mg/kg |
| CCCCC#N | 332 mg/kg |
| CCCCC(C=O)CC (stereo unspecified) | 2600 mg/kg |
| Cc1ccc([N+](=O)[O-])cc1 | 2050 mg/kg |
| Cn1cnc([N+](=O)[O-])c1Sc1ncnc2nc[nH]c12 | 400 mg/kg |
| Oc1c(Cl)cc(Cl)c(Cl)c1Cc1c(O)c(Cl)cc(Cl)c1Cl | 56 mg/kg |
| CC1(C)[C@H](/C=C(\Cl)C(F)(F)F)[C@@H]1C(=O)O[C@H](C#N)c1cccc(Oc2ccccc2)c1 | 114 mg/kg |
| CC(C)(C)N | 44 mg/kg |
| CCOP(=S)(OCC)SCSC(C)(C)C | 1.6 mg/kg |
| CN=C=S | 55 mg/kg |
| Clc1ccccc1 | 1110 mg/kg |
| CCCCN(CCCC)SN(C)C(=O)Oc1cccc2c1OC(C)(C)C2 | 51 mg/kg |
| CCN(CC)N=O | 220 mg/kg |
| C=CCCl | 284 mg/kg |
| CCCCOCC(C)O (stereo unspecified) | 2500 mg/kg |
| Oc1ccc(O)cc1 | 302 mg/kg |

| Compound | LD50 |
| --- | --- |
| CC(C)(C)c1ccc(O)c(O)c1 | 815 mg/kg |
| Clc1cc2c(cc1Cl)Oc1cc(Cl)c(Cl)cc1O2 | 0.02 mg/kg |
| Cc1cccc(Nc2cc(Cl)nc(SCC(=O)O)n2)c1C | 1050 mg/kg |
| Cc1ccccc1OCC1CO1 (stereo unspecified) | 2800 mg/kg |
| CC(C)c1ccc2ccc(C(C)C)cc2c1 | 4130 mg/kg |
| S=C=S | 1200 mg/kg |
| CC(C)CC=O | 5600 mg/kg |
| CCCC(O)C(CC)CO (stereo unspecified) | 1400 mg/kg |
| CCCCC(CC)COC(=O)c1ccccc1 (stereo unspecified) | 2500 mg/kg |
| OCCOCCOCCO | 17000 mg/kg |
| ClC(Br)Br | 370 mg/kg |
| CCCCSP(=O)(SCCCC)SCCCC | 150 mg/kg |
| OCCCCO | 1350 mg/kg |
| ClC(Cl)=C(Cl)C(Cl)=C(Cl)Cl | 82 mg/kg |
| C1CC2OC2CC1C1CO1 (stereo unspecified) | 2130 mg/kg |
| COCCOCCOCCOC | 5390 mg/kg |
| CC(=O)OC1CC(C)OC(C)O1 (stereo unspecified) | 1930 mg/kg |
| C[N+](C)(C)CCCl | 600 mg/kg |
| O=C1c2ccccc2C(=O)C1C(=O)C(c1ccccc1)c1ccc(Cl)cc1 (stereo unspecified) | 2.1 mg/kg |
| CC1(C)CC(=O)CC(C)(C#N)C1 (stereo unspecified) | 61.6 mg/kg |
| CCCCNCCCC | 189 mg/kg |
| O=C(O)CBr | 50 mg/kg |

| Compound | LD50 |
| --- | --- |
| CN(C)CCCN1c2ccccc2Sc2ccc(Cl)cc21 | 142 mg/kg and 143 mg/kg |
| COCC(C)O (stereo unspecified) | 3740 mg/kg |
| CCOCn1c(-c2ccc(Cl)cc2)c(C#N)c(Br)c1C(F)(F)F | 560 mg/kg |
| CC1(C)OC(c2ccco2)CN1C(=O)C(Cl)Cl (stereo unspecified) | 521 mg/kg |
| O=C(NC(=O)c1c(F)cccc1F)Nc1ccc(Cl)cc1 | 790 mg/kg |
| CCCCC(CC)(CO)CO | 2800 mg/kg |
| CCOc1ccc(NC(N)=O)cc1 | 1900 mg/kg |
| C=C(C)C(=O)OCCN(C)C | 455 mg/kg |
| ClC(Cl)C(Cl)Cl | 200 mg/kg |
| CCNCC | 540 mg/kg |
| CC(C)c1cccc(C(C)C)c1N | 3200 mg/kg |
| CC(=O)CC(C)C | 2080 mg/kg |
| CCCCCCCCCCCCN(CCCN)CCCN | 252 mg/kg |
| CCCC(=NOCC)C1=C(O)CC(CC(C)SCC)CC1=O (stereo unspecified) | 2680 mg/kg |
| CC(C)N(C(=O)SCC(Cl)=C(Cl)Cl)C(C)C | 200 mg/kg |
| NC1CCCCC1N (stereo unspecified) | 1170 mg/kg |
| CCCC(C)=O | 1600 mg/kg |
| CCOP(=S)(OCC)Oc1cc(Cl)c(SC)cc1Cl | 9.1 mg/kg |
| C=CC(=O)OCC | 800 mg/kg |
| CN(C)CCCNCCCN | 1540 mg/kg |
| CN(C)C(=O)Nc1ccc(Cl)c(Cl)c1 | 437 mg/kg |
| C1=CC2CCC1C2 | 9580 mg/kg |

| Compound | LD50 |
| --- | --- |
| CCCOC(C)=O | 9370 mg/kg |
| CCCCCCCC(=O)OC | 10100 mg/kg |
| O=C(O)c1cccc(C(=O)O)c1 | 10400 mg/kg |
| CCCS | 1730 mg/kg |
| CC(=O)CC(C)(C)O | 2520 mg/kg |
| C=CNC=O | 1000 mg/kg |
| CCCC1CO1 (stereo unspecified) | 1330 mg/kg |
| Clc1ccc(-c2ccc(Cl)c(Cl)c2Cl)c(Cl)c1Cl | 1300 mg/kg |
| Nc1ccccc1N | 510 mg/kg |
| CC[Si](Cl)(Cl)CC | 600 mg/kg |
| CCCCCCCC/C=C\CCCCCCCCNCCCN | 500 mg/kg |
| COC[C@H](C)N(C(=O)CCl)c1c(C)csc1C | 371 mg/kg |
| O=C=NCc1cccc(CN=C=O)c1 | 3200 mg/kg |
| C=CC(=O)Nc1ccccc1 | 300 mg/kg |
| C=Cc1ccccc1 | 1000 mg/kg |
| Nc1ccc(Cl)c(Cl)c1 | 530 mg/kg |
| CC(O)COc1ccccc1 (stereo unspecified) | 2830 mg/kg |
| COC(=O)/C=C\C(=O)OC | 1410 mg/kg |
| C1CO1 | 72 mg/kg |
| CCCCCCCCCCCCCCCCCC[N+](C)(C)CCCCCCCCCCCCCCCCCC | 11300 mg/kg |
